Laboratory results reported in PubChem BioAssay AID1963429 (Molecular Pharmacology Branch, DTP, NCI, 2024).
Values belong to the molecule of their own block, whether it stands above or below them.

Test system: 126254-015-R-J1-PDC complex spheroid growth, % test/control
Assay: Anticancer human tumor 126254-015-R-J1-PDC patient-derived soft tissue sarcoma cell line growth inhibition [Asc]
Conditions: for IC50: curve of first compound; for viability, T/C: stronger effect = lower value
Method in brief: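 Complex solid-tumor spheroids incorporating human endothelial and mesenchymal stem cells received single agents or combinations over half-log dilution ranges anchored to clinical Cmax.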

[1] = second compound 0.1 µM, first compound 0.0316 µM
[2] = second compound 0.1 µM, first compound 0.1 µM
[3] = second compound 0.316 µM, first compound 0.0316 µM
[4] = second compound 0.316 µM, first compound 0.1 µM
[5] = second compound 1 µM, first compound 0.0316 µM
[6] = second compound 1 µM, first compound 0.1 µM
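Also: spheroids exposed to compound for seven days.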
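For viability, T/C in this document: 100% = DMSO vehicle control wells.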

IC50 (second compound 0.01 µM): > 0.1 µM
IC50 (second compound 0.0316 µM): > 0.1 µM
IC50 (second compound 0.1 µM): > 0.1 µM
IC50 (second compound 0.316 µM): > 0.1 µM
IC50 (second compound 1 µM): > 0.1 µM
Structure (SMILES): NC1CCC(NC2CC2c2ccccc2)CC1 (stereo not given) + CNC(C)C(=O)NC1CN(S(=O)(=O)c2cccc(S(=O)(=O)N3CCC4CCC(C(=O)NC(c5ccccc5)c5ccccc5)N4C(=O)C(NC(=O)C(C)NC)C3)c2)CCC2CCC(C(=O)NC(c3ccccc3)c3ccccc3)N2C1=O
viability, T/C (second compound 0.01 µM, first compound 0.000316 µM): 86.3%
viability, T/C (second compound 0.01 µM, first compound 0.001 µM): 89.1%
viability, T/C (second compound 0.01 µM, first compound 0.00316 µM): 87.1%
viability, T/C (second compound 0.01 µM, first compound 0.01 µM): 75.5%
viability, T/C (second compound 0.01 µM, first compound 0.0316 µM): 80.5%
viability, T/C (second compound 0.01 µM, first compound 0.1 µM): 75%
viability, T/C (second compound 0.0316 µM, first compound 0.000316 µM): 79.2%
viability, T/C (second compound 0.0316 µM, first compound 0.001 µM): 81.6%
viability, T/C (second compound 0.0316 µM, first compound 0.00316 µM): 77.5%
viability, T/C (second compound 0.0316 µM, first compound 0.01 µM): 77.3%
viability, T/C (second compound 0.0316 µM, first compound 0.0316 µM): 78.1%
viability, T/C (second compound 0.0316 µM, first compound 0.1 µM): 70.6%
viability, T/C (second compound 0.1 µM, first compound 0.000316 µM): 70.3%
viability, T/C (second compound 0.1 µM, first compound 0.001 µM): 71.3%
viability, T/C (second compound 0.1 µM, first compound 0.00316 µM): 72.2%
viability, T/C (second compound 0.1 µM, first compound 0.01 µM): 69.6%
viability, T/C [1]: 68.8%
viability, T/C [2]: 68%
viability, T/C (second compound 0.316 µM, first compound 0.000316 µM): 62.2%
viability, T/C (second compound 0.316 µM, first compound 0.001 µM): 71.6%
viability, T/C (second compound 0.316 µM, first compound 0.00316 µM): 65%
viability, T/C (second compound 0.316 µM, first compound 0.01 µM): 54.5%
viability, T/C [3]: 61.7%
viability, T/C [4]: 57.8%
viability, T/C (second compound 1 µM, first compound 0.000316 µM): 49.5%
viability, T/C (second compound 1 µM, first compound 0.001 µM): 56.5%
viability, T/C (second compound 1 µM, first compound 0.00316 µM): 54.5%
viability, T/C (second compound 1 µM, first compound 0.01 µM): 50.9%
viability, T/C [5]: 53.8%
viability, T/C [6]: 53%

IC50 (second compound 0.1 µM): > 10 µM
IC50 (second compound 0.316 µM): > 10 µM
IC50 (second compound 1 µM): 6.58 µM
IC50 (second compound 3.16 µM): 7.17 µM
IC50 (second compound 10 µM): 9.19 µM
Structure (SMILES): C#Cc1c(F)ccc2cc(O)cc(-c3ncc4c(N5CC6CCC(C5)N6)nc(OCC56CCCN5CC(F)C6)nc4c3F)c12 (stereo not given) + Cc1c(S(C)(=O)=O)c(-c2cc(F)cc(N3CCN(c4ccc(NS(=O)(=O)c5ccc(NC(CCN6CCC(C(=O)OCCCP(=O)(O)O)CC6)CSc6ccccc6)c(S(=O)(=O)C(F)(F)F)c5)cc4)CC3)c2)c(-c2ccc(Cl)cc2)n1C(C)C
viability, T/C [1]: 85.4%
viability, T/C [2]: 92.8%
viability, T/C (second compound 0.1 µM, first compound 0.316 µM): 90.4%
viability, T/C (second compound 0.1 µM, first compound 1 µM): 80.9%
viability, T/C (second compound 0.1 µM, first compound 3.16 µM): 72.4%
viability, T/C (second compound 0.1 µM, first compound 10 µM): 59.9%
viability, T/C [3]: 88.5%
viability, T/C [4]: 86%
viability, T/C (second compound 0.316 µM, first compound 0.316 µM): 80.9%
viability, T/C (second compound 0.316 µM, first compound 1 µM): 79.2%
viability, T/C (second compound 0.316 µM, first compound 3.16 µM): 72.4%
viability, T/C (second compound 0.316 µM, first compound 10 µM): 54.5%
viability, T/C [5]: 84%
viability, T/C [6]: 92.2%
viability, T/C (second compound 1 µM, first compound 0.316 µM): 73.8%
viability, T/C (second compound 1 µM, first compound 1 µM): 81.9%
viability, T/C (second compound 1 µM, first compound 3.16 µM): 72.3%
viability, T/C (second compound 1 µM, first compound 10 µM): 37.4%
viability, T/C (second compound 3.16 µM, first compound 0.0316 µM): 82.6%
viability, T/C (second compound 3.16 µM, first compound 0.1 µM): 90.8%
viability, T/C (second compound 3.16 µM, first compound 0.316 µM): 83.4%
viability, T/C (second compound 3.16 µM, first compound 1 µM): 79.5%
viability, T/C (second compound 3.16 µM, first compound 3.16 µM): 65.8%
viability, T/C (second compound 3.16 µM, first compound 10 µM): 43.6%
viability, T/C (second compound 10 µM, first compound 0.0316 µM): 87.1%
viability, T/C (second compound 10 µM, first compound 0.1 µM): 88.4%
viability, T/C (second compound 10 µM, first compound 0.316 µM): 81.2%
viability, T/C (second compound 10 µM, first compound 1 µM): 75.5%
viability, T/C (second compound 10 µM, first compound 3.16 µM): 75%
viability, T/C (second compound 10 µM, first compound 10 µM): 47.8%
